US10028911B2, “Sustained release formulation of methotrexate as a disease-modifying antirheumatic drug (DMARD) and an anti-cancer agent” (PACIRA PHARMACEUTICALS, INC., priority 2010, dated 2018)
Like-named read-outs stand apart in the source and are kept apart here.

What was measured:
[1] = Pharmacokinetic (PK) study in rats, subcutaneous injection, serum MTX by HPLC; format: in vivo, Male Sprague Dawley rats; conditions: rat
Protocol: A pharmacokinetic (PK) study was performed in rats, comparing MTX solution control against four different formulations of MVL-encapsulated MTX at a dose level of 10 mg/kg. Male Sprague Dawley rats weighing 280-320 g received subcutaneous injections of either MTX solution or one of the MVL-encapsulated MTX formulations. The injections were made on the left lateral hind limb of each rat using 1 mL syringes fitted with 25G needles. Each treatment group contained 3 rats. Appropriate dilutions with sterile saline solution were performed to provide a dose of 10 mg/kg of MTX per rat, assuming an average rat weight of 300 g (final injection volume of 200 uL). Rats were ordered by pre-dose weight and then randomized into the different treatment groups.
Serum MTX analysis was performed to measure MTX in serum using a liquid-liquid extraction (LLE) HPLC method performed by an Agilent 1200 Series system produced by Agilent Technologies headquartered in Santa Clara, Calif. A 100 μL volume of rat serum was mixed with 300 μL of acetonitrile solution containing 1.1% formic acid (w/v) in a 1.5-mL Eppendorf tube. The deproteinization was carried out by vortexing for 1 minute, followed by centrifugation at 13,000 g for 5 minutes. The entire supernatant was transferred into a 1.5-mL microcentrifuge tube with screw cap. Acetonitrile was cleaned out by mixing 500 μL of chloroform with the supernatant. The tube was vortexed for 1 minute and then centrifuged at 13,000 g for 3 minutes. A 40 μL volume of the top aqueous portion was collected into a 100-μL vial insert for HPLC sample injection.
The HPLC system was equipped with a detector set at 302 nm and a 2.1-mm×250-mm Supelcosil LC-18-S with 5-μm particle size column. The mobile phase consisted of 102 mM sodium phosphate (dibasic), 32.5 mM citric acid, and 10% (v/v) acetonitrile (pH˜6.0). The flow rate was 0.6 mL/min, column temperature 35° C., and injection volume 20 μL. An MTX standard curve was prepared by spiking 6 different concentrations of MTX (22.7-727.1 ng/mL) into MTX-free rat serum. The MTX in each spiked standard was extracted using the same sample preparation method above.
Additional PK studies on Formulations 1 and 2 were performed as above, including some at reduced doses of MTX. The PK parameters from these studies are summarized below. […] The Cavg is the average plasma concentration over the 7 day time period.

[2] = cited from earlier work

Structure (SMILES): CN(Cc1cnc2nc(N)nc(N)c2n1)c1ccc(C(=O)N[C@@H](CCC(=O)O)C(=O)O)cc1 [MTX Solution, methotrexate]
- time to drop below LOQ in plasma ([1]; 10 mg/kg, FIG. 1): ≤ 24 h
- AUC/Dose ([1]; MTX dose 10 mg/kg): 1.55 µmol·h/L/mg/kg
- Cmax ([1]; MTX dose 10 mg/kg): 14.4 µM
- tmax ([1]; MTX dose 10 mg/kg): 0.5 h
- standard AUC ([2]; oral immediate release dosage forms (Hoekstra et al. 2004)): 2466 mcg/L-hr
- t1/2 ([2]; orally administered): 8 to 10 h
- tmax ([2]; orally administered): 1 to 3 h
